Legend:
in vitro = details: human, pH 7.4
Description: Phosphate-buffered saline (PBS, Cat. #10010 from ThermoFisher Scientific, Waltham, MA, USA) was adjusted to pH 7.4 and used as the receiver buffer. […] Tissues were received and stored at 4° C. until use. The tissue inserts were transferred to plates containing MATTEK SMI-100 culture medium using sterile technique and placed in a humidified incubator (37±1° C., 5% CO2) overnight for recovery prior to use, according to MATTEK protocols.
The control was PBS, pH 7.4 buffer for baseline endogenous histamine. Reference B was histamine α,α,β,β-d4 dihydrochloride (1 mg/mL) in PBS, pH 7.4. Reference A was a 300 μL dose added to the apical side of the tissue. […] In each trial, a 100 μL sample was immediately collected as the 0-minute donor sample and was not replenished. The pharmaceutical composition, the control, and Reference B were dosed with 200 μL, and 10 μL donor samples and collected at each time point (0, 15, 30, 60, and 120 minutes) without replacement. Six replicates of each treatment were conducted. […] The assay plates were transferred to a humidified incubator (37±1° C., 5% CO2) between sampling time points. […] Upon completion of the study, all samples were stored at −80° C. until analysis by LC-MS/MS. […]
The cumulative receiver concentration of each compound at each time point (Cc) was calculated as the sum of the measured concentration at that time point (Cm) and 0.2/5 of the measured concentrations at the previous time points (a 0.2 mL receiver sample out of the 5 mL total receiver volume was withdrawn and replaced at each time point, except for the final time point which was not replaced).
The Papp for each compound was calculated as follows: Papp=(dCr/dt)×Vr/(A×Cn), where dCr/dt is the slope of the cumulative receiver concentration (in μM) vs. time (t); Vr is the volume of the receiver compartment (5 cm^3); A is the exposed surface area for permeation (0.6 cm^2); and Cn is the nominal concentration in the donor compartment (in μM).
The recovery (%) at the final timepoint for histamine was calculated as follows: Recovery=100×((Vr120×Cr^final)+(Vd^initial×Cd^initial)+(Vd^15×Cd^15)+(Vd^30×Cd^30)+(Vd^60×Cd^60)+(Vd^final×Cd^final))/(Vd×Cn).
The flux was calculated using the following equation: Flux(overall)=dCc/dt×Vr/A; where dCc/dt is the slope of the cumulative receiver concentration (in μM) vs. time (t); Vr is the volume of the receiver compartment (in cm^3); t is the duration of the flux period in the linear range (in minutes); and A is the diffusional surface area of the exposed tissue surface (0.6 cm^2).

[1] = oral administration; inferred from Papp of Example 12
Description: Previous studies of the drug permeability data in Caco-2 cells for predicting human drug absorption data plotted apparent permeability (Papp) values against the drug fraction absorbed in humans expressed as a percentage of the administered dose (FA). […] (Turco, et al. Toxicology in Vitro, 2010, 13-20).

Row | Papp A→B at 120 min (in vitro) [×10⁻⁶ cm/s] | Papp A→B at 120 min, 89969 μM (in vitro) [×10⁻⁶ cm/s] | recovery at 120 min (in vitro) [%] | absorbed in the small intestine, amount of the administered dosage [1] | SMILES
1 | 18.7 ± 1.5 | 18.7 ± 1.5 | 93.6 | greater than 85% | Cl.Cl.NCCc1c[nH]cn1 [histamine dihydrochloride]
2 | – | – | 89.1 ± 5.2 | – | CC(C)NCC(O)COc1ccc(CC(N)=O)cc1 (centres unmarked) [atenolol]
